# Experimental data reported in publication PMC4226840, “An open-label study to determine the maximum tolerated dose of the multitargeted tyrosine kinase inhibitor CEP-11981 in patients with advanced cancer” (Investigational New Drugs, 2014).
# Experiments:
# VEGFR-1 = test system: VEGFR-1; parameters: method as in PMID 22148921; settings: in vitro; cited from earlier work
# [1] = Phase I dose escalation: MTD and DLTs; assay type: in vivo, human
# Experimental: This was an open-label, nonrandomized, multicenter, dose-escalation phase I study of CEP-11981 in patients with advanced, relapsed/refractory solid tumors. The study was conducted in accordance with Good Clinical Practice: Consolidated Guidance approved by the International Conference on Harmonisation, and applicable national and local laws and regulations and approved by appropriate Independent Ethics Committees or Institutional Review Boards. All patients provided written consent before study procedures or assessments were performed.
# (§1) The primary measures were MTD and DLTs. MTD was defined as the highest dose at which one-third or fewer of patients in a cohort experienced a DLT, which included grade ≥ 2 proteinuria, grade ≥ 3 nonhematologic toxicity (excluding hypertension and pain), grade ≥ 3 thrombocytopenia with bleeding, or grade 4 hematologic toxicity that was not clearly due to progressive cancer. Secondary measures included the pharmacokinetics of CEP-11981 after a single dose and multiple doses, the pharmacokinetic-pharmacodynamic profile of CEP-11981, safety, and preliminary efficacy. The efficacy endpoint was the proportion of patients who achieved complete or partial response on study (minimum of 6 weeks) according to Response Evaluation Criteria in Solid Tumors (RECIST) guidelines.
# Oral CEP-11981 was administered once daily for the first 28 days of each 42-day cycle. Initial dose escalation from the starting dose of 3 mg/m^2 was by 40 % increments. After completion of additional toxicology studies and the preliminary analysis of plasma exposure in patients, the dose for the fourth cohort was doubled from the third cohort and thereafter the escalation followed a modified Fibonacci sequence. The final dose levels were: 3.0, 4.2, 5.9, 11.8, 19.7, 29.6, 41.4, 55.0, 73.0, 97.4, and 126.6 mg/m^2. The dose administered was rounded to the smallest capsule strength available. Dosing for a patient was to be stopped at the onset of a DLT and, at resolution within 14 days, could be resumed at a dose equal to 50 % of the patient’s current dose. […]
# [2] = test system: advanced, relapsed/refractory solid tumors; experiment: Tumor response (RECIST) in phase I patients; assay type: in vivo, human
# Text: as §1
# [3] = Phase I safety: adverse events (CTCAE v3.0)
# Experimental: Adverse events were recorded and graded according to the Common Terminology Criteria for Adverse Events, version 3.0.
# Physical examinations, urinalysis, ECG, and laboratory evaluations (including serum chemistry and hematology) were performed at screening and on days 1, 2, 8, 15, 22, and 29 of cycle 1; on days 1, 15, and 29 of subsequent cycles; and at the end-of-treatment follow-up visit (14 days after the last dose). Adverse events were evaluated on days 2, 8, 15, and 22 of cycle 1; on days 1, 15, and 29 of every subsequent cycle; and at the end-of-treatment follow-up visit.
# Tie-2 = test system: Tie-2; parameters: method as in PMID 22148921; settings: cited from earlier work
# [4] = molecular target: fibroblast growth factor receptor-1; parameters: method as in PMID 22148921; settings: cited from earlier work
# [5] = of 37 patients evaluated for tumor response
substance,measurement,setting,value
"11-(2-methylpropyl)-12,13-dihydro-2-methyl-8-(pyrimidin-2-ylamino)-4H-indazolo[5,4-a]pyrrolo[3,4-c]carbazol-4-one [CEP-11981]",IC50,VEGFR-1,3 nM
same,DLTs,"[1]; 97.4 mg/m^2 cohort, n = 9",no DLTs were observed
same,Patients with DLTs,"[1]; 126.6 mg/m^2 cohort, n = 2",2 patients
same,Maximum-tolerated dose (MTD),"[1]; oral once daily, first 28 days of each 42-day cycle, patients with solid tumors",97.4 mg/m^2
same,Complete or partial response (RECIST),[2]; all cohorts,no enrolled patients had complete or partial response
same,Frequency of stable disease,[2]; cohorts receiving ≤ 55.0 mg/m^2 (11 of 29 patients),37.9%
same,Frequency of stable disease,[2]; cohorts receiving ≥ 73.0 mg/m^2 (8 of 14 patients),57.1%
same,Patients with stable disease at ≥ 6 weeks,[2]; intent-to-treat population (19 of 43 patients),44%
same,Patients with disease progression,[2]; [5],18 patients
same,Patients with stable disease at ≥ 6 weeks,[2]; [5],51%
same,Grade 3/4 adverse events,[3]; 3.0 mg/m^2 n = 3,• Abdominal pain • Arthralgia • Back pain
same,Grade 3/4 adverse events,[3]; 4.2 mg/m^2 n = 3,• Abdominal pain
same,Grade 3/4 adverse events,[3]; 5.9 mg/m^2 n = 5,• Hyperkalemia
same,Grade 3/4 adverse events,[3]; 19.7 mg/m^2 n = 3,• Back pain • Hypokalemia • Hyponatremia • Lumbar vertebral fracture
same,Grade 3/4 adverse events,[3]; 55.0 mg/m^2 n = 5,• Abdominal pain • Anxiety • Arthralgia • Back pain • Cellulitis • Constipation • Hypokalemia • Impaired healing • Musculo-skeletal pain • Peripheral edema • Scrotal edema • Somnolence
same,Grade 3/4 adverse events,[3]; 73.0 mg/m^2 n = 3,• Anemia • Leukopenia • Diarrhea • Decreased appetite • Musculo-skeletal pain • Neck pain • Headache • Pleural effusion
same,Grade 4 leukopenia,[3]; 126.6 mg/m^2 cohort,1 patient
same,Grade 4 neutropenia,[3]; 126.6 mg/m^2 cohort,1 patient
same,Grade 3/4 adverse events,"[3]; 126.6 mg/m^2 n = 2, ^b treatment-related",• Neutropenia^b • ECG change
same,Grade 3/4 abdominal pain,[3]; across all groups,7%
same,Grade 3/4 back pain,[3]; across all groups,7%
same,Grade 3/4 lymphopenia,[3]; across all groups,19%
same,Grade 3/4 neutropenia,[3]; across all groups,7%
same,Patients with ECG changes,[3]; all cohorts,2%
same,Patients with hypertension,[3]; all cohorts,2%
same,"Abdominal pain, any grade","[3]; all cohorts, N = 43",30%
same,"Back pain, any grade","[3]; all cohorts, N = 43",28%
same,"Constipation, any grade","[3]; all cohorts, N = 43",28%
same,Deaths during the study,"[3]; all cohorts, N = 43",No deaths occurred
same,"Decreased appetite, any grade","[3]; all cohorts, N = 43",33%
same,"Diarrhea, any grade","[3]; all cohorts, N = 43",33%
same,"Dizziness, any grade","[3]; all cohorts, N = 43",28%
same,"Dyspnea, any grade","[3]; all cohorts, N = 43",23%
same,"Fatigue, any grade","[3]; all cohorts, N = 43",51%
same,"Headache, any grade","[3]; all cohorts, N = 43",28%
same,"Nausea, any grade","[3]; all cohorts, N = 43",47%
same,"Patients with adverse events possibly, probably, or definitely related to study drug","[3]; all cohorts, N = 43",88.3%
same,Patients with grade 3 adverse events,"[3]; all cohorts, N = 43",32.6%
same,Patients with grade 3 or 4 adverse events,"[3]; all cohorts, N = 43",37%
same,Patients with grade 3 or 4 laboratory hematologic toxicities,"[3]; all cohorts, N = 43",18.6%
same,Patients with grade 4 adverse events,"[3]; all cohorts, N = 43",4.7%
same,Patients with ≥ 1 adverse event,"[3]; all cohorts, N = 43",43 patients
same,Serious adverse events,"[3]; all cohorts, N = 43",12 patients
same,"Vomiting, any grade","[3]; all cohorts, N = 43",28%
same,IC50,Tie-2,22 nM
same,IC50,[4],13 nM
